Laboratory results reported in patent US20260217701A1, “SELECTIVE BET INHIBITORS AND USES THEREOF” (Tay Therapeutics Limited, priority 2022, published 2026).

How the values were obtained:
[1] = Rat PK study #4 (Compound A PO 0.2 and 1.0 mg/kg, propylene glycol formulation); assay type: in vivo, Lewis rats; settings: 1 mg/kg and 10 mg/kg doses, rats
[2] = Bleomycin IPF model: body weight and mortality; assay type: in vivo, C57BI/6J mice; parameters: Mean Body Weight Change: unit not given here
Description: Male C57BI/6J mice, aged 12 weeks with an approximate weight of 25-30 g were obtained from Jackson Laboratories (Bar Harbor, ME). Animals were acclimated for two weeks prior to study initiation, and were randomized into the experimental groups outlined in Table 32.
Intratracheal (IT) administration of Bleo or PBS control was conducted at the start of the study (Day 0). […] Animals were weighed on Day 0, and indexed boluses of PBS control (Group 1) or Bleo (Groups 2-6) were delivered by IT administration.
Following administration of Bleo, animals (n=10/group) were included in the study if they met the following guidelines on Day 7: (1) a predictable 5% loss in body weight, and (2) the presence of fibrotic pulmonary lesions, detected by micro-CT imaging. 10 animals from Group 1 additionally proceeded as controls. Animals that continued in the study on Day 7 received an oral gavage (OG) administration of PBS, Compound A (1 mg/kg, 3 mg/kg, 10 mg/kg), or Pirfenidone (300 mg/kg), as outlined in Table 31 in 25 μL boluses every other day (QOD), starting on Day 7. Compound A was formulated in 5% (v/v) DMSO/15% (v/v) PEG 400/80% (v/v) E-TPGS in purified water. […]

With `Cn1cc(-c2ccccc2)c(-c2cn(C)c(=O)c3[nH]c(-c4cnn(C(F)(F)F)c4)cc23)cc1=O` [Compound A, 6-methyl-4-(1-methyl-2-oxo-5-phenyl-1,2-dihydropyridin-4-yl)-2-(1-(trifluoromethyl)-1H-pyrazol-4-yl)-1,6-dihydro-7H-pyrrolo[2,3-c]pyridin-7-one] the “duration of exposure above the free EC50 BD2 BRD4” value [1] was 24 h, the “Mean Body Weight Change” value ([2]; Bleo + Compound A (1 mg/kg) OG QOD from D7, Day 1) was 1.269 and the “Mean Body Weight Change” value ([2]; Bleo + Compound A (1 mg/kg) OG QOD from D7, Day 2) was −0.061. The “Mean Body Weight Change” value ([2]; Bleo + Compound A (1 mg/kg) OG QOD from D7, Day 3) was −0.538, the “Mean Body Weight Change” value ([2]; Bleo + Compound A (1 mg/kg) OG QOD from D7, Day 4) was −4.382 and the “Mean Body Weight Change” value ([2]; Bleo + Compound A (1 mg/kg) OG QOD from D7, Day 5) was −8.986. The “Mean Body Weight Change” value ([2]; Bleo + Compound A (1 mg/kg) OG QOD from D7, Day 6) was −11.204, the “Mean Body Weight Change” value ([2]; Bleo + Compound A (1 mg/kg) OG QOD from D7, Day 7) was −14.465 and the “Mean Body Weight Change” value ([2]; Bleo + Compound A (1 mg/kg) OG QOD from D7, Day 8) was −18.012. For the same compound, the “Mean Body Weight Change” value ([2]; Bleo + Compound A (1 mg/kg) OG QOD from D7, Day 9) was −17.310, the “Mean Body Weight Change” value ([2]; Bleo + Compound A (1 mg/kg) OG QOD from D7, Day 10) was −17.947 and the “Mean Body Weight Change” value ([2]; Bleo + Compound A (1 mg/kg) OG QOD from D7, Day 11) was −16.922. The “Mean Body Weight Change” value ([2]; Bleo + Compound A (1 mg/kg) OG QOD from D7, Day 12) was −17.204, the “Mean Body Weight Change” value ([2]; Bleo + Compound A (1 mg/kg) OG QOD from D7, Day 13) was −16.710 and the “Mean Body Weight Change” value ([2]; Bleo + Compound A (1 mg/kg) OG QOD from D7, Day 14) was −16.996. The “Mean Body Weight Change” value ([2]; Bleo + Compound A (1 mg/kg) OG QOD from D7, Day 15) was −16.840, the “Mean Body Weight Change” value ([2]; Bleo + Compound A (1 mg/kg) OG QOD from D7, Day 16) was 16.698 and the “Mean Body Weight Change” value ([2]; Bleo + Compound A (1 mg/kg) OG QOD from D7, Day 17) was −16.509. The “Mean Body Weight Change” value ([2]; Bleo + Compound A (1 mg/kg) OG QOD from D7, Day 18) was −16.113, the “Mean Body Weight Change” value ([2]; Bleo + Compound A (1 mg/kg) OG QOD from D7, Day 19) was −16.612 and the “Mean Body Weight Change” value ([2]; Bleo + Compound A (1 mg/kg) OG QOD from D7, Day 20) was −16.506. For the same compound, the “Mean Body Weight Change” value ([2]; Bleo + Compound A (1 mg/kg) OG QOD from D7, Day 21) was −16.978, the “Mean Body Weight Change” value ([2]; Bleo + Compound A (3 mg/kg) OG QOD from D7, Day 1) was 0.712 and the “Mean Body Weight Change” value ([2]; Bleo + Compound A (3 mg/kg) OG QOD from D7, Day 2) was −0.088. The “Mean Body Weight Change” value ([2]; Bleo + Compound A (3 mg/kg) OG QOD from D7, Day 3) was −1.018, the “Mean Body Weight Change” value ([2]; Bleo + Compound A (3 mg/kg) OG QOD from D7, Day 4) was −5.198 and the “Mean Body Weight Change” value ([2]; Bleo + Compound A (3 mg/kg) OG QOD from D7, Day 5) was −8.915. For the same compound, the “Mean Body Weight Change” value ([2]; Bleo + Compound A (3 mg/kg) OG QOD from D7, Day 6) was −11.426, the “Mean Body Weight Change” value ([2]; Bleo + Compound A (3 mg/kg) OG QOD from D7, Day 7) was −14.024 and the “Mean Body Weight Change” value ([2]; Bleo + Compound A (3 mg/kg) OG QOD from D7, Day 8) was −18.310. The “Mean Body Weight Change” value ([2]; Bleo + Compound A (3 mg/kg) OG QOD from D7, Day 9) was 18.416, the “Mean Body Weight Change” value ([2]; Bleo + Compound A (3 mg/kg) OG QOD from D7, Day 10) was −19.029 and the “Mean Body Weight Change” value ([2]; Bleo + Compound A (3 mg/kg) OG QOD from D7, Day 11) was −17.826. The “Mean Body Weight Change” value ([2]; Bleo + Compound A (3 mg/kg) OG QOD from D7, Day 12) was −18.384, the “Mean Body Weight Change” value ([2]; Bleo + Compound A (3 mg/kg) OG QOD from D7, Day 13) was −18.055 and the “Mean Body Weight Change” value ([2]; Bleo + Compound A (3 mg/kg) OG QOD from D7, Day 14) was −18.840. The “Mean Body Weight Change” value ([2]; Bleo + Compound A (3 mg/kg) OG QOD from D7, Day 15) was −19.765, the “Mean Body Weight Change” value ([2]; Bleo + Compound A (3 mg/kg) OG QOD from D7, Day 16) was −19.797 and the “Mean Body Weight Change” value ([2]; Bleo + Compound A (3 mg/kg) OG QOD from D7, Day 17) was −20.566. The “Mean Body Weight Change” value ([2]; Bleo + Compound A (3 mg/kg) OG QOD from D7, Day 18) was −21.350, the “Mean Body Weight Change” value ([2]; Bleo + Compound A (3 mg/kg) OG QOD from D7, Day 19) was −20.021 and the “Mean Body Weight Change” value ([2]; Bleo + Compound A (3 mg/kg) OG QOD from D7, Day 20) was −22.069. The “Mean Body Weight Change” value ([2]; Bleo + Compound A (3 mg/kg) OG QOD from D7, Day 21) was −22.585, the “Mean Body Weight Change” value ([2]; Bleo + Compound A (10 mg/kg) OG QOD from D7, Day 1) was 1.987 and the “Mean Body Weight Change” value ([2]; Bleo + Compound A (10 mg/kg) OG QOD from D7, Day 2) was 2.172. The “Mean Body Weight Change” value ([2]; Bleo + Compound A (10 mg/kg) OG QOD from D7, Day 3) was 0.974, the “Mean Body Weight Change” value ([2]; Bleo + Compound A (10 mg/kg) OG QOD from D7, Day 4) was 4.101 and the “Mean Body Weight Change” value ([2]; Bleo + Compound A (10 mg/kg) OG QOD from D7, Day 5) was −8.131. The “Mean Body Weight Change” value ([2]; Bleo + Compound A (10 mg/kg) OG QOD from D7, Day 6) was −9.560, the “Mean Body Weight Change” value ([2]; Bleo + Compound A (10 mg/kg) OG QOD from D7, Day 7) was −11.173 and the “Mean Body Weight Change” value ([2]; Bleo + Compound A (10 mg/kg) OG QOD from D7, Day 8) was −14.286. For the same compound, the “Mean Body Weight Change” value ([2]; Bleo + Compound A (10 mg/kg) OG QOD from D7, Day 9) was −15.876, the “Mean Body Weight Change” value ([2]; Bleo + Compound A (10 mg/kg) OG QOD from D7, Day 10) was −16.428 and the “Mean Body Weight Change” value ([2]; Bleo + Compound A (10 mg/kg) OG QOD from D7, Day 11) was −14.809. The “Mean Body Weight Change” value ([2]; Bleo + Compound A (10 mg/kg) OG QOD from D7, Day 12) was −13.953, the “Mean Body Weight Change” value ([2]; Bleo + Compound A (10 mg/kg) OG QOD from D7, Day 13) was −15.394 and the “Mean Body Weight Change” value ([2]; Bleo + Compound A (10 mg/kg) OG QOD from D7, Day 14) was −13.610. The “Mean Body Weight Change” value ([2]; Bleo + Compound A (10 mg/kg) OG QOD from D7, Day 15) was −15.280, the “Mean Body Weight Change” value ([2]; Bleo + Compound A (10 mg/kg) OG QOD from D7, Day 16) was −13.218 and the “Mean Body Weight Change” value ([2]; Bleo + Compound A (10 mg/kg) OG QOD from D7, Day 17) was −13.174. The “Mean Body Weight Change” value ([2]; Bleo + Compound A (10 mg/kg) OG QOD from D7, Day 18) was −14.218, the “Mean Body Weight Change” value ([2]; Bleo + Compound A (10 mg/kg) OG QOD from D7, Day 19) was −15.010 and the “Mean Body Weight Change” value ([2]; Bleo + Compound A (10 mg/kg) OG QOD from D7, Day 20) was −16.208. The “Mean Body Weight Change” value ([2]; Bleo + Compound A (10 mg/kg) OG QOD from D7, Day 21) was −16.139, the “Ending body weight at Day 21” value ([2]; Bleo mice, 10 mg/kg) was “higher ending weight at Day 21” and the “Body weight course after start of administration” value ([2]; Bleo mice, all doses tested (1, 3, 10 mg/kg)) was “weight loss was arrested”. The “Body weight compared with Bleo+Saline treated animals” value ([2]; Compound A (all doses tested), Pirfenidone (300 mg/kg)) was “No significant difference” and the Deaths / mortality ([2]; OG administration, IPF study) was “no deaths or significant changes in mortality”.
